Read-outs that look alike come from different tables or passages of the source.
How the values were obtained:
[1] = maximum tolerated dose (MTD) in rats; assay type: in vivo
Description: The maximum tolerated dose (MTD) in rats is also listed for each compound.

human bladder cells = assay: inhibition of basal human bladder cell growth; assay type: cell-based; conditions: for IC50: Homo sapiens

SMILES | MTD ([1]; rat, in vivo, read-out: MTD) [µg/kg] | IC50 (human bladder cells) [µM] | MTD [1] [µg/kg] | −Log IC50 (human bladder cells; basal human bladder cell growth, cells not stimulated with testosterone)
C=C1/C(=C\C=C2/CCC[C@]3(C)C(C4(CC#CC(O)(C(F)(F)F)C(F)(F)F)CC4)=CCC23)CC(O)C[C@@H]1O (stereo partly drawn) [1α,25-Dihydroxy-16-ene-20-cyclopropyl-23,24-yne-26,27 hexafluoro cholecalciferol] | 0.3 | 3550 | – | –
CC(=O)OC1C/C(=C/C=C2\CCC[C@@]3(C)C2CCC3C2(C/C=C\C(O)(C(F)(F)F)C(F)(F)F)CC2)C[C@@H](OC(C)=O)C1 (some centres unmarked) [1,3-Di-O-acetyl-1,25-dihydroxy-20-cyclopropyl-23Z-ene-26,27-hexafluoro-19-nor-cholecalciferol] | 10 | 0.2 | – | –
C=C1/C(=C\C=C2/CCC[C@@]3(C)C2CCC3C(CCCC(C)(C)O)CCC(O)C(C)(C)O)C[C@@H](O)C[C@@H]1O (stereo partly drawn) [1,25-Dihydroxy-21-(2R,3-dihydroxy-3-methyl-butyl)-20R-Cholecalciferol] | 30 | 24 | – | –
CC(C)(O)CCCC(CCCC(C)(C)O)[C@H]1CC[C@H]2/C(=C/C=C3C[C@@H](O)C[C@H](O)C3)CCC[C@]12C [1,25-dihydroxy-21-(3-hydroxy-3-methylbutyl)-19-nor-cholecalciferol] | – | 9.77 | – | –
C=C1/C(=C\C=C2/CCC[C@]3(C)C(C4(C/C=C\C(O)(C(F)(F)F)C(F)(F)F)CC4)=CCC23)CC(O)C[C@@H]1O (stereo partly drawn) [1α,25-Dihydroxy-16-ene-20-cyclopropyl-23,24-Z-ene-26,27-hexafluoro-cholecalciferol] | 1 | 0.0794 | – | –
C=C1C(=CC=C2CCCC3(C)C2CCC3C2(CC#CC(C)(C)O)CC2)CC(OC(C)=O)CC1OC(C)=O (centres unmarked) [1,3-Di-O-acetyl-1,25-dihydroxy-20-cyclopropyl-23-yne-cholecalciferol] | – | – | 30 | >2
C=C1/C(=C\C=C2/CCC[C@]3(C)C(C(C)CC#CC(O)(C(F)(F)F)C(F)(F)F)=CCC23)CC(OC(C)=O)C[C@@H]1OC(C)=O (some centres unmarked) [1,3-Di-O-acetyl-1,25-dihydroxy-16-ene-23-yne-26,27-hexafluoro-cholecalciferol] | 10 | 0.002 | – | –
CC(=O)OC1C/C(=C/C=C2\CCC[C@]3(C)C(C(C)CCCC(C)(C)O)=CCC23)C[C@@H](OC(C)=O)C1 (some centres unmarked) [1,3-Di-O-acetyl-1,25-dihydroxy-16-ene-19-nor-cholecalciferol] | 3 | 0.000631 | – | –
CC(=O)OC1C/C(=C/C=C2\CCC[C@]3(C)C(C(C)CC#CC(C)(C)O)=CCC23)C[C@@H](OC(C)=O)C1 (some centres unmarked) [1,3-Di-O-Acetyl-1,25-dihydroxy-16-ene-23-yne-19-nor-cholecalciferol] | 30 | 186 | – | –
C=C1/C(=C\C=C2/CCC[C@@]3(C)C2CCC3C2(CCCC(C)(C)O)CC2)CC(OC(C)=O)C[C@@H]1OC(C)=O (some centres unmarked) [1,3-Di-O-acetyl-1,25-dihydroxy-20-cyclopropyl-cholecalciferol] | 30 | 0.398 | – | –
C=C1/C(=C\C=C2/CCC[C@@]3(C)C2CCC3C(C)CC#CC(C)(C)O)CC(OC(C)=O)C[C@@H]1OC(C)=O (some centres unmarked) [1,3-Di-O-acetyl-1,25-dihydroxy-23-yne-cholecalciferol] | 1 | < 10000 | – | –
C=C1/C(=C\C=C2/CCC[C@]3(C)C(C(C)CCCC(C)(C)O)=CCC23)CC(OC(C)=O)C[C@@H]1OC(C)=O (some centres unmarked) [1,3-Di-O-acetyl-1,25-dihydroxy-16-ene-cholecalciferol] | 1 | 0.000224 | – | –
CC(=O)O[C@@H]1CC(=C/C=C2\CCC[C@]3(C)C([C@H](C)CCC(=O)C(C)(C)O)=CCC23)C[C@@H](OC(C)=O)C1 (some centres unmarked) [1,3-O-Diacetyl-1,25-Dihydroxy-16-ene-24-Keto-19-nor-Cholecalciferol] | 300 | 0.617 | – | –
C=C1/C(=C\C=C2/CCC[C@]3(C)C(C(C)CC#CC(C)(C)O)=CCC23)CC(OC(C)=O)C[C@@H]1OC(C)=O (some centres unmarked) [1,3-Di-O-acetyl-1,25-dihydroxy-16-ene-23-yne-cholecalciferol] | 10 | 5.01e-05 | – | –
CC(=O)OC1C/C(=C/C=C2\CCC[C@@]3(C)C2CCC3C2(CC#CC(OC(C)=O)(C(F)(F)F)C(F)(F)F)CC2)C[C@@H](OC(C)=O)C1 (some centres unmarked) [1,3,25-Tri-O-acetyl-1,25-dihydroxy-20-cyclopropyl-23-yne-26,27-hexafluoro-19-nor-cholecalciferol] | 10 | 0.0398 | – | –
[2H]C([2H])([2H])C(O)(CCC[C@@H](CC#CC(O)(C(F)(F)F)C(F)(F)F)C1CCC2/C(=C/C=C3C[C@@H](O)C[C@H](O)C3)CCC[C@@]21C)C([2H])([2H])[2H] (stereo partly drawn) [1,25-Dihydroxy-21(3-hydroxy-3-trifluoromethyl-4-trifluoro-butynyl)-26,27-hexadeutero-19-nor-20S-cholecalciferol] | 0.2 | 31600 | – | –
C=C1/C(=C\C=C2/CCC[C@]3(C)C(C4(CCCC(C)(C)O)CC4)=CCC23)CC(O)C[C@@H]1O (stereo partly drawn) [1α,25-Dihydroxy-16-ene-20-cyclopropyl-cholecalciferol] | 1 | 0.017 | – | –
C=C1/C(=C\C=C2/CCC[C@]3(C)C(C(C)C/C=C/C(C)(C)O)=CCC23)CC(OC(C)=O)C[C@@H]1OC(C)=O (some centres unmarked) [1,3-Di-O-acetyl-1,25-dihydroxy-16,23E-diene-cholecalciferol] | 3 | 4.17e-06 | – | –
CC(=O)OC1C/C(=C/C=C2\CCC[C@@]3(C)C2CCC3C2(C/C=C/C(O)(C(F)(F)F)C(F)(F)F)CC2)C[C@@H](OC(C)=O)C1 (some centres unmarked) [1,3-Di-O-acetyl-1,25-dihydroxy-20-cyclopropyl-23E-ene-26,27-hexafluoro-19-nor-cholecalciferol] | 0.3 | 0.00158 | – | –
C=C1/C(=C\C=C2/CCC[C@]3(C)C(C4(C/C=C/C(O)(C(F)(F)F)C(F)(F)F)CC4)=CCC23)CC(O)C[C@@H]1O (stereo partly drawn) [1α,25-Dihydroxy-16-ene-20-cyclopropyl-23,24-E-ene-26,27-hexafluoro-cholecalciferol] | 0.3 | 1.58e-05 | – | –
CC(=O)OC1C/C(=C/C=C2\CCC[C@@]3(C)C2CCC3C2(CC#CC(O)(C(F)(F)F)C(F)(F)F)CC2)C[C@@H](OC(C)=O)C1 (some centres unmarked) [1,3-Di-O-acetyl-1,25-dihydroxy-20-cyclopropyl-23-yne-26,27-hexafluoro-19-nor-cholecalciferol] | 10 | 0.0012 | – | –

Source: US20070054887A1, “Methods for treating bladder dysfunction” (BioXell S.p.A, priority 2003, published 2007)
